Source: ChEMBL document CHEMBL3045674, “Synthesis of N-[3-(acetylthio)alkanoyl] and N-[3-mercaptoalkanoyl]-4-(s)-(phenylmethyl) pyroglutamic acids and prolines as potent ACE inhibitors” (2009)
Calls of active or inactive are those of the source. No cut-off for these calls is given here.

Tests used:
Rattus norvegicus [1] = test: Antihypertensive activity in Rattus norvegicus Sprague-Dawley (rat) assessed as inhibition of angiotensin-1-induced increase in blood pressure at 10 ug/kg, iv administered 5 min before angiotensin-1 challenge; type: functional
Rattus norvegicus [2] = test: Antihypertensive activity in Rattus norvegicus Sprague-Dawley (rat) assessed as inhibition of angiotensin-1-induced increase in blood pressure at 30 ug/kg, iv administered 5 min before angiotensin-1 challenge; type: functional

SMILES | inhibition in vivo at 0.01 mg/kg (Rattus norvegicus [1]) [%] | inhibition in vivo at 0.03 mg/kg (Rattus norvegicus [2]) [%] | inhibition (Rattus norvegicus [1])
C[C@H](CS)C(=O)N1CCC[C@H]1C(=O)O [CAPTOPRIL] | 60 | – | –
CC(=O)SC[C@@H](C)C(=O)N1C(=O)[C@@H](Cc2ccccc2)C[C@H]1C(=O)O | – | 60 | inactive
CC(=O)SC[C@@H](C)C(=O)N1C[C@@H](Cc2ccccc2)C[C@H]1C(=O)O | 22 | – | –
CC(=O)SCCC(=O)N1C(=O)[C@@H](Cc2ccccc2)C[C@H]1C(=O)O | 13 | 20 | –
